Data from patent US9868775B2, “Sfrp5-derived peptide fragment and cosmetic composition for skin whitening containing same” (KNU-INDUSTRY COOPERATION FOUNDATION, priority 2014, dated 2018).

Columns and labels:
[1] = system: MITF; assay: RT-PCR, MITF gene expression in human epidermal melanocytes; type: cell-based; details: α-MSH, predetermined concentrations, 72 hours, RT-PCR (FIG. 6)
Method: (§1) Human epidermal melanocytes were added to each well of a 6-well plate (1.5×10^5 cells per well), along with 2 ml of DMEM, and then stabilized through incubating in a 5% CO2 incubator at 37° C. for 24 hours. α-MSH (Sigma Co, MO, USA), a melanocyte-stimulating hormone, was treated to each well, along with the peptide of SEQ ID NO: 8 in predetermined concentrations. After incubating the cells for 72 hours, the total RNAs were extracted therefrom and then cDNAs were synthesized. The cDNA syntheses were carried out with a Reverse Transcription Master premix (Elpisbiotech, Daejeon, Korea). Using each synthesized cDNA as a template, reverse transcription polymerase chain reactions (RT-PCR) were carried out with a ROTOR Q GENE apparatus. Each RT-PCR solution was prepared by mixing 1 μl of cDNA, 10 μl of TOPreal qRT-PCR2X premix (Enzynomics, Daejeon, Korea), 2 μl of primer set (10 pmol) and 7 μl of D.W. The RT-PCR was carried out as follows: initially at 94° C. for 10 minutes; and then at 94° C. for 10 seconds, at 58° C. for 30 seconds, and at 72° C. for 1 minute; 40 cycles.

[2] = system: mouse melanoma cell line B16F10; assay: inhibitory activity against melanin formation in B16F10; type: cell-based; details: B16F10, α-MSH 100 nM, peptide 0.1, 1, and 10 μM, 24 hours (FIG. 3)
Method: B16F10 cells (Korean Cell Line Bank, Seoul) were added to each well of a 6-well microplate (1.5×10^5 cells per well), along with 2 ml of DMEM, and then incubated in a 5% CO2 incubator at 37° C. for 24 hours. α-MSH (Sigma Co, MO, USA) (100 nM) was treated to each well, along with the peptide of SEQ ID NO: 8 in the final concentrations of 0.1, 1, and 10 μM. The groups in which α-MSH (100 nM) and arbutin (0.01%) were respectively treated were used as positive controls. After additionally incubating the cells for 24 hours, the pictures of each culture ware taken so as to compare the respective levels of melanin formation.

[3] = system: MITF and β-catenin; assay: in situ proximity ligation assay, binding between MITF and β-catenin; type: cell-based, mouse; details: B16F1 cells, similar methods to CREB test (FIG. 1c)
Method: The effects of the peptide fragments of the present invention on the β-catenin activation, which plays a critical role in Wnt signaling pathways, were evaluated using an in situ proximity ligation assay. The evaluation was performed with a commercially available kit, i.e., DUOLINK II in situ kit from Olink Bioscience, Sweden.
The mouse melanoma cell line B16F1 cells (Korean Cell Line Bank, Seoul) were added to 1 ml of DMEM in each well of a 24-well plate (5×10^4 cells per well), each well having a 12 mm glass in the bottom thereof. The cells were then stabilized through incubating in a 5% CO2 incubator at 37° C. for 24 hours. α-MSH (Sigma Co, MO, USA), a melanocyte-stimulating hormone (0.1 μM), and the peptide fragments of the present invention (1 μM) were treated to each well. The cells were cultured in a 5% CO2 incubator at 37° C. for 24 hours and then fixed with 4% paraformaldehyde. After a drop of the blocking solution was added to the cells on the 12 mm glass, the cells were then incubated at 37° C. for 30 minutes. Activation of the Wnt receptor increases the interaction between CREB (cyclic AMP response element-binding) and β-catenin. For determining the interaction levels thereof, the cells were treated with an anti-CREB polyclonal antibody (Santa Cruz Co., CA, USA) and an anti-β-catenin mouse monoclonal antibody (Santa Cruz Co., CA, USA) at 37° C. After incubating 30 minutes therefrom, the cells were treated with the PLA probe solution at 37° C. for 1 hour, with the ligation solution for 30 minutes, and then with the amplification solution for 100 minutes. After washing the cells with the washing buffer, the number of the red spots was measured with a confocal microscopy. In FIGS. 1a and 1b, the control means the group of no treatment and the α-MSH means the group treated with only α-MSH (i.e., without peptide treatment).
And also, according to similar methods in the above, we investigated the inhibitory effects of the peptides of SEQ ID NOs: 5, 8, and 9 on the binding between MITF and β-catenin.

[4] = system: GSK-3; assay: Western blotting, GSK-3 phosphorylation in human epidermal melanocytes; type: cell-based; details: α-MSH, predetermined concentrations, 48 hours (FIG. 2)
Method: (§2) The effects of the peptide fragment of the present invention on the β-catenin expression and the GSK-3 phosphorylation, which plays a critical role in the activation of Wnt signaling pathways, were evaluated using a Western blotting assay. Human epidermal melanocytes (Cascade Biologics, #C-0245C; Portland, Oreg., USA) were added to 2 ml of DMEM in each well of a 6-well microplate (1.5×10^5 cells per well). The cells were then stabilized through incubating in a 5% CO2 incubator at 37° C. for 24 hours. α-MSH (Sigma Co, MO, USA), a melanocyte-stimulating hormone, was treated to each well, along with the peptide fragment of the present invention (the peptide of SEQ ID NO: 8) in predetermined concentrations. After the cells were cultured for 48 hours, the proteins were extracted therefrom. The obtained extracts were subject to the Western blotting assay using an anti-β-catenin antibody (Santa Cruz Co., CA, USA) and an anti-pGSK-3 antibody (Cell SignalingTechnology, MA, USA), so as to measure the levels of β-catenin expression and GSK-3 phosphorylation changes. […] Therefore, it can be seen that the peptide fragments of the present invention can inhibit the Wnt signaling pathways in melanocytes.

[5] = system: TRP-1; assay: Western blotting, TRP-1 protein expression in human epidermal melanocytes; type: cell-based; details: α-MSH, predetermined concentrations, 24 hours (FIG. 5)
Method: (§3) We evaluated the effects of the peptide fragment of the present invention on the protein expressions of the melanin-producing enzymes in human epidermal melanocytes, using a Western blotting assay. Human epidermal melanocytes (Cascade Biologics, #C-0245C; Portland, Oreg., USA) were added to each well of a 6-well microplate (1.5×10^5 cells per well), along with 2 ml of DMEM, and then stabilized through incubating in a 5% CO2 incubator at 37° C. for 24 hours. α-MSH (Sigma Co, MO, USA), a melanocyte-stimulating hormone, was treated to each well, along with the peptide fragment of the present invention (the peptide of SEQ ID NO: 8) in predetermined concentrations. After incubating the cells for 24 hours, the proteins were extracted therefrom. The obtained extracts were subject to the Western blotting assay using an anti-MITF antibody (ABcam, Ma, USA), an anti-tyrosinase antibody (Santa Cruz Co., CA, USA), an anti-TRP-1 antibody (Santa Cruz Co., CA, USA), and an anti-TRP-2 antibody (Santa Cruz Co., CA, USA), so as to measure the expression levels of MITF, tyrosinase, TRP-1, and TRP-2.

[6] = system: TRP-2; assay: RT-PCR, TRP-2 gene expression in human epidermal melanocytes; type: cell-based; details: α-MSH, predetermined concentrations, 72 hours, RT-PCR (FIG. 6)
Method: as §1

[7] = system: tyrosinase; assay: inhibitory activity against tyrosinase activity in B16F10 (L-DOPA, 490 nm); type: cell-based, mouse; details: B16F10, α-MSH, predetermined concentrations, 72 hours, 490 nm (FIG. 4)
Method: B16F10 cells (Korean Cell Line Bank, Seoul) were added to each well of a 24-well plate (5×10^4 cells per well), along with 1 ml of DMEM, and then stabilized through incubating in a 5% CO2 incubator at 37° C. for 24 hours. α-MSH (Sigma Co, MO, USA), a melanocyte-stimulating hormone, was treated to each well, along with the peptide of SEQ ID NO: 8 in predetermined concentrations. After incubating the cells for 72 hours, the proteins were extracted therefrom. The obtained extracts were added to each well of a 96-well plate ([…] per each well) and then treated with a L-dihydroxyphenylalanine (L-DOPA) solution (100 μL) at 37° C. for 2 hours. The groups in which α-MSH (100 nM) and arbutin (0.01%) were respectively treated were used as positive controls. After 2 hours, the pictures thereof were taken and the tyrosinase activities thereof were measured at 490 nm with a microreader.

[8] = system: TRP-1; assay: RT-PCR, TRP-1 gene expression in human epidermal melanocytes; type: cell-based; details: α-MSH, predetermined concentrations, 72 hours, RT-PCR (FIG. 6)
Method: as §1

[9] = system: MITF; assay: Western blotting, MITF protein expression in human epidermal melanocytes; type: cell-based; details: α-MSH, predetermined concentrations, 24 hours (FIG. 5)
Method: as §3

[10] = system: tyrosinase; assay: Western blotting, tyrosinase protein expression in human epidermal melanocytes; type: cell-based; details: α-MSH, predetermined concentrations, 24 hours (FIG. 5)
Method: as §3

[11] = system: TRP-2; assay: Western blotting, TRP-2 protein expression in human epidermal melanocytes; type: cell-based; details: α-MSH, predetermined concentrations, 24 hours (FIG. 5)
Method: as §3

[12] = system: β-catenin; assay: Western blotting, β-catenin expression in human epidermal melanocytes; type: cell-based; details: α-MSH, predetermined concentrations, 48 hours (FIG. 2)
Method: as §2

[13] = system: tyrosinase (TYR); assay: RT-PCR, tyrosinase gene expression in human epidermal melanocytes; type: cell-based; details: α-MSH, predetermined concentrations, 72 hours, RT-PCR (FIG. 6)
Method: as §1

bindings between MITF and β-catenin [3] | Substance | gene expression of MITF [1] | melanin formation (brown colors of cell culture) [2] | level of GSK-3 phosphorylation [4] | expression level of TRP-1 (protein) [5] | gene expression of TRP-2 [6] | tyrosinase activity [7] | gene expression of TRP-1 [8] | expression level of MITF (protein) [9] | expression level of tyrosinase (protein) [10] | expression level of TRP-2 (protein) [11] | level of β-catenin expression [12] | gene expression of tyrosinase (TYR) [13]
significantly decreased | Cys-Glu-Ala-Val (CEAV; Peptide fragment) [SEQ ID NO: 9, Sfrp5-derived peptide fragment] |  |  |  |  |  |  |  |  |  |  |  | 
significantly decreased | Lys-Ile-Gly (KIG; Petide fragment) [SEQ ID NO: 5, Sfrp5-derived peptide fragment] |  |  |  |  |  |  |  |  |  |  |  | 
 | α-MSH: a melanocyte-stimulating hormone (Sigma Co, MO, USA), used as stimulant [reference compound] | increased |  |  |  | increased | increased | increased |  |  |  |  | increased

Substance | bindings between MITF and β-catenin [3] | gene expression of MITF [1] | melanin formation (brown colors of cell culture) [2] | level of GSK-3 phosphorylation [4] | expression level of TRP-1 (protein) [5] | gene expression of TRP-2 [6] | tyrosinase activity [7] | gene expression of TRP-1 [8] | expression level of MITF (protein) [9] | expression level of tyrosinase (protein) [10] | expression level of TRP-2 (protein) [11] | level of β-catenin expression [12] | gene expression of tyrosinase (TYR) [13]
Ala-Gln-Lys (AQK; Petide fragment) [SEQ ID NO: 8, Sfrp5-derived peptide fragment] | significantly decreased | decreased in concentration-dependent manner | decreased according to the concentrations of the peptide | decreased | decreased | decreased in concentration-dependent manner | decreased in concentration-dependent manner | decreased in concentration-dependent manner | decreased | decreased | decreased | decreased | decreased in concentration-dependent manner
